One may read the EC50 as the concentration that produces a half-maximal response. Read a low EC50 as higher potency in that assay. One may read the IC50 as the midpoint of a concentration-inhibition curve.

The values that follow come from ChEMBL document CHEMBL1149626, “Aza analogues of equol: novel ligands for estrogen receptor beta” (Bioorg Med Chem, 2007).

Test [1] concerns Mus musculus. In words: Effect on bone mineral density in ovariectomized kunming mouse at 4 umol/kg, sc qd for 4 weeks. The class given is functional.
Test [2] deals with Mus musculus. Put plainly: Effect on uterine wet weight in ovariectomized kunming mouse at 4 umol/kg, sc qd for 4 weeks. The format is functional.
In test [3] the target is T1, Estrogen receptor (Homo sapiens, UniProt P03372).
T1 sequence (P03372 whole entry): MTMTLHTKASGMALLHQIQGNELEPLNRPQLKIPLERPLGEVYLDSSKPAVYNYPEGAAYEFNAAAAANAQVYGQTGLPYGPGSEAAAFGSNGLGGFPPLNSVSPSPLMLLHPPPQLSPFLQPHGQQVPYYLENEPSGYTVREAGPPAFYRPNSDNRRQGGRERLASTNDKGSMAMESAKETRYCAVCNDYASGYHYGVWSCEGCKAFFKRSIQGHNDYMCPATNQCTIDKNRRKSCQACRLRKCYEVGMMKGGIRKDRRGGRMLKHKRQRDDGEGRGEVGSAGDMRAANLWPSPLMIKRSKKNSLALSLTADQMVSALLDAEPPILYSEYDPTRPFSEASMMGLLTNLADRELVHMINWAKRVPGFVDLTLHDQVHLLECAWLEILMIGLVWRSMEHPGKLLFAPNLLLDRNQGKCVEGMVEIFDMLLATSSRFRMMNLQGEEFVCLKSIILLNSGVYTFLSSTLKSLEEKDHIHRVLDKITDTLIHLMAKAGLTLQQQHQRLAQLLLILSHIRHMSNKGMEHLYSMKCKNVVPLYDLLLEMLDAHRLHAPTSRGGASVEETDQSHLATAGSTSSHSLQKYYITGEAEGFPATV
Put plainly: Agonist activity at human ERalpha expressed in yeast AH109 by yeast two hybrid assay. The format is functional.

For test [4], the target named is T2, Estrogen receptor beta (Homo sapiens, UniProt Q92731). Put plainly: Agonist activity at human ERbeta expressed in yeast AH109 by yeast two hybrid assay. The format is functional.
T2 sequence (Q92731 whole entry): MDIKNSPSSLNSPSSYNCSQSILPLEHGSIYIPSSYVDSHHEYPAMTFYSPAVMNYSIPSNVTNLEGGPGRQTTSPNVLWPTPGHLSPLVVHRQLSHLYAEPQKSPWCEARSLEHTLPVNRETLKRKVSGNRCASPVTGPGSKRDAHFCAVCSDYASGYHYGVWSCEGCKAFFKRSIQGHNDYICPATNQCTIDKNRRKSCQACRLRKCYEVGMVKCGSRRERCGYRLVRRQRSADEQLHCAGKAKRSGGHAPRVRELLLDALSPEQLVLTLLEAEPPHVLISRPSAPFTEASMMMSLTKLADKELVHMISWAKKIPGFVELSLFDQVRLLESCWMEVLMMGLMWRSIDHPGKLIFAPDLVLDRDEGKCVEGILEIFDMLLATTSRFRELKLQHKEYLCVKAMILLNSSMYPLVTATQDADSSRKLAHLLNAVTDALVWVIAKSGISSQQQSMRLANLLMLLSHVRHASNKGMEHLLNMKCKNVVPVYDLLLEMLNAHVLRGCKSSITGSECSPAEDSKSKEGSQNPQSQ
For test [5], the target named is T3, Estrogen receptor (Homo sapiens) (UniProt P03372).
T3 sequence (whole entry): T1 sequence (P03372 whole entry)
Description: (§1) Displacement of [3H]17beta-estradiol from recombinant human ERalpha

The target of test [6] is T2, Estrogen receptor beta.
Description: Displacement of [3H]17beta-estradiol from recombinant human ERbeta
The species named for test [7] is Homo sapiens. In words: Selectivity for human ERbeta over human ERalpha.
Test [8] concerns the target T1, Estrogen receptor.
Description: as §1
The species named for test [9] is Homo sapiens. In words: Selectivity ratio of EC50 for human ERalpha to EC50 for human ERbeta.
The target in test [10] is T1, Estrogen receptor. In words: Antagonist activity at ERalpha expressed in yeast AH109 assessed as inhibition of 17-beta-estradiol induced alpha-galactosidase activity. The format is functional.

Activity calls are given as the source filed them. The calls are words filed in the database; no cut-off is given here.

In the case of `Oc1ccc(-c2cnc3cc(O)ccc3c2)cc1`, the Activity was 430 mg/cm3 in [1] and 33.1 mg in test [2]. Besides, the EC50 is above 100 µM in [3] and 37.5 µM in [4].

Turning to `Oc1ccc(C2Cc3ccc(O)cc3NC2=S)cc1` (stereo not drawn), the Activity in [1] stood at 483 mg/cm3; in test [2], 38.7 mg. In addition, in [5], the result was inactive. In addition, in test [6], the IC50 was determined as 4.9 µM.

In the case of `O=CN1CC(c2ccc(O)cc2)Cc2ccc(O)cc21` (stereo not drawn), the Activity is on record as 463 mg/cm3 in test [1] and 36.4 mg in [2].

For `O=C(C1CC1)N1CC(c2ccc(O)cc2)Cc2ccc(O)cc21` (stereo not drawn), the result in [5] was inactive. This molecule gave a 50% inhibitory concentration (IC50) in test [6] of 2.95 µM.

For `CCN1CC(c2ccc(O)cc2)Cc2ccc(O)cc21` (stereo not drawn), the Activity in test [1] came to 454 mg/cm3; in [2] it was 31.7 mg. In addition, the Ratio IC50 in [7] came to 17. In addition, the half-inhibitory concentration (IC50) is 1.41 µM in [8] and 0.083 µM in [6]. The EC50 in test [3] was 24.3 µM; in test [4] it was 0.58 µM. In addition, the Ratio EC50 in test [9] was determined as 41.

In the case of `CCCN1CC(c2ccc(O)cc2)Cc2ccc(O)cc21` (stereo not drawn), the figures for the Activity in test [1] and in test [2] were 439 mg/cm3 and 28.3 mg, respectively. In test [7], the Ratio IC50 amounted to 17.9. Moreover, the IC50 in [8] stood at 2.47 µM; in test [6] it was 0.14 µM; in [10], 2.65 µM. Also, the midpoint of the response in test [4], the EC50, lay at 4.75 µM.

Turning to `O=C(c1ccc(OCCN2CCCCC2)cc1)c1c(-c2ccc(O)cc2)sc2cc(O)ccc12` [RALOXIFENE], the Activity in [1] stood at 608 mg/cm3; in test [2] it was 69.5 mg.

Regarding `Oc1ccc(C2Cc3ccc(O)cc3N(CC3CC3)C2)cc1` (stereo not drawn), the Activity amounted to 461 mg/cm3 in [1] and 30.8 mg in test [2]. Besides, in [7], the Ratio IC50 was 7.1. Further, the IC50 was determined as 1.63 µM in test [8], 0.23 µM in test [6] and 5.57 µM in test [10]. In test [4], this molecule yielded an EC50 of 6.89 µM.

For `CN1CC(c2ccc(O)cc2)Cc2ccc(O)cc21` (stereo not drawn), the Activity turned out to be 455 mg/cm3 in test [1] and 31.8 mg in test [2]. Also, the Ratio IC50 in test [7] was determined as 13.3. In addition, the IC50 in [8] was 2.95 µM; in test [6] it was 0.22 µM. The EC50 in [3] turned out to be 15.2 µM; in test [4] it was 0.3 µM. Moreover, the Ratio EC50 in test [9] is 50.

As for `CS(=O)(=O)N1CC(c2ccc(O)cc2)Cc2ccc(O)cc21` (stereo not drawn), the Activity in test [1] is 475 mg/cm3; in [2], 32.5 mg. For the same molecule, the Ratio IC50 in test [7] stood at 61.5. Further, the half-maximal inhibitory concentration (IC50) in test [8] worked out at 32.1 µM; in test [6] it was 0.52 µM.

Turning to `Oc1ccc(C2CNc3cc(O)ccc3C2)cc1` (stereo not drawn), the EC50 in test [3] was above 100 µM; in test [4] it was 9.7 µM.

As to `CC(=O)N1CC(c2ccc(O)cc2)Cc2ccc(O)cc21` (stereo not drawn), the Activity in test [1] stood at 451 mg/cm3; in test [2] it was 29.1 mg.
